From patent publication US20250313635A1, “ANTI-INTEGRIN ANTIBODIES AND USES THEREOF” (Merck Sharp & Dohme LLC, priority 2022, published 2025)

What was measured:
[1] = tested on: bleomycin-induced lung fibrosis mouse model; experiment: Mouse bleomycin lung fibrosis model; type: in vivo; conditions: MK-0429 200 mpk osmotic minipump, Nintedanib 60 mpk po qd
Protocol: Mouse bleomycin lungfibrosis models. Adult male C57BL/6 mice (Taconic, Rensselaer, NY) were housed in a temperature and humidity-controlled facility with a 12-hour light: 12-hour dark cycle. Animals had ad libitum access to food (Purina Rodent Chow 5053, LabDiet, St. Louis, MO) and water. All procedures utilizing experimental animals were conducted in accordance with the Guide for the Care and Use of Laboratory Animals, and experimental procedures were reviewed and approved by the Institutional Animal Care and Use Committee at MRL, Kenilworth, NJ.
For osmotic minipump implantation, trifluoroacetate (TFA) salt of MK-0429 was formulated in 50% dimethylsulfoxide (DMSO)/50% H2O at a concentration of 416 mg/mL. MK-0429 or vehicle solution were filled in minipumps (Alzet, #1007D, flow rate 0.5 μL/hour). Minipumps were placed in mice subcutaneously in a pocket on the back between the shoulder blades. A small incision was made and a subcutaneous pocket formed by blunt dissection. A sterile minipump was inserted into the subcutaneous pocket. The incision was closed with staples or non-absorbable suture or absorbable (subcuticular) suture. The minipumps were used for continuous drug delivery for two weeks.
(§1) Mice at 12˜13 weeks of age were randomized to five groups: saline, bleomycin instillation with vehicle (osmotic minipump), bleomycin instillation with MK-0429 treatment, bleomycin instillation with vehicle oral treatment, and bleomycin instillation with Nintedanib treatment. All mice were anaesthetized with isoflurane. Bleomycin was dosed by intratracheal (i.t) instillation in a volume of 50 μL, at a dose of 1 unit/kg body weight. After instillation, mice were kept in a heads-up position for 2-5 minutes before putting into cages. MK-0429 (200 mg/kg) was administered by Osmotic pump from day 5 to day 14 and Nintedanib (60 mg/kg) was administered, p.o., q.d., for 14 days. Vehicle was dosed orally at 10 am daily from the day 5 to the end of the studies and dosing volume was 10 mL/kg. For plasma PK analysis, an aliquot of 50 μL plasma was spiked into a 96-well plate, and 200 μL of acetonitrile containing internal standard were added for protein precipitation. The mixture was vortexed, centrifuged at 4000 rpm for 20 minutes. Then 50 μL of supernatant fraction was mixed with 200 μL H2O and the final solution were injected for LC-MS/MS analysis. The methods for quantitative analysis were developed on UPLC (Waters) chromatographic system equipped with an API4000 QTrap™ mass spectrometer (Applied Biosystems, Concord, Ontario, Canada). Analyst 1.5 software packages (Applied Biosystems) were used to control the LC-MS/MS system and data acquisition and processing.
Histopathology analysis. Upon completion of the study, animals were euthanized and tissues were collected for histological assessment. Lung tissues were perfused with 10% formalin, fixed for 24 hours, and then paraffin embedded. Tissue sections were stained with hematoxylin & eosin (H&E) and Masson's trichrome, subsequently evaluated under light microscope. The severity of histopathologic changes and fibrosis in the lung were graded as described previously by pathologists (Ashcroft et al., J. Clin. Pathol. 41, 467-470 (1988); Hubner et al., Biotechniques 44(507-511), 514-607 (2008)). Following deparaffinization and rehydration, each lung tissue section was processed to identify αSMA deposition by immunohistochemistry. The primary antibodies used were αSMA antibody from Sigma. The Aperio ScanScope™ XT Slide Scanner (Aperio Technologies) system was used to capture whole slide digital images with a 20×objective. Digital images were managed using Aperio Spectrum™. The positive stains were identified and quantified using a macro created from a color deconvolution algorithm (Aperio Technologies). Statistical analysis was performed by using One-way ANOVA followed by Tukey's test.

[2] = Plasma PK analysis in bleomycin model (LC-MS/MS); type: in vivo; conditions: mouse, two hours after the last dose at end of study; MK-0429 200 mpk osmotic minipump, Nintedanib 60 mpk po qd
Protocol: as §1, with “Analyst 1.5 software packages (Applied Biosystems) were used to control the LC-MS/MS system and data acquisition and processing.” left out

[3] = tested on: Normal human lung fibroblasts; experiment: αSMA imaging, TGFβ-induced αSMA expression; type: cell-based; conditions: TGFβ 5 ng/mL, pre-treated 30 minutes, MK-0429 (10 µM) or SB-525334 (10 μM), 48 hours
Protocol: αSMA imaging. Primary cells (passage 3-5) were grown on Cell carrier Ultra, collagen Type 1 coated 96-well plates (Perkin Elmer, #6055700) at a density of 25,000 cells/well. Once the cells adhere, they were starved in serum free media for 24 hours followed by addition of treatments, i.e., 5 ng/mL TGFβ (Biolegend #580702)±inhibitors. Cells were pre-treated with inhibitors for 30 minutes prior to the addition of TGFβ stimulation. 48 hours post treatment, the cells were fixed in 4% methanol free paraformaldehyde (ThermoFisher Scientific #28908) for 20 minutes at room temperature and incubated with anti-alpha smooth muscle Actin antibody (Abcam #ab7817) at 1:4000 overnight at 4° C. Following primary antibody incubation, cells were incubated with Goat anti-mouse secondary antibody (ThermoFisher Scientific #A32723) at 1:500 and Hoechst (ThermoFisher Scientific #62249) at 1:1000 for one hour at RT. The fixed and stained cells were images for immunofluorescence on Perkin Elmer's Opera Phenix high content Imager.

[4] = 14 days treatment, vs BLM-vehicle

| SMILES | body weight difference vs bleomycin group [1] | BALF TIMP-1 content [1, 4] | bleomycin-induced αSMA expression (IHC) [1, 4] | inflammation in the lung [1, 4] | modified Ashcroft score [1, 4] | mean plasma concentration [2] | αSMA intensity and the percentage of stimulated cells following TGFβ treatment [3] |
| --- | --- | --- | --- | --- | --- | --- | --- |
| COC(=O)c1ccc2c(c1)NC(=O)/C2=C(\Nc1ccc(N(C)C(=O)CN2CCN(C)CC2)cc1)c1ccccc1 [Nintedanib, reference compound] | no significant body weight difference | significantly decreased | significantly decreased | decreased inflammation | significantly improved | 656+229 ng/mL | – |
| Cc1cccc(-c2[nH]c(C(C)(C)C)nc2-c2ccc3nccnc3c2)n1 [SB-525334, reference compound] | – | – | – | – | – | – | significantly reduced |
